Data on 1 compound can be found in patent publication US9872917B2, “Anion-paired cationic metallocene-containing compounds and polymers as antimicrobial agents” (University of South Carolina, priority 2013, dated 2018).

The test system of this assay is CA-MRSA cells. Description: Broth dilution method, growth followed at OD600. Type of assay: cell-based, Staphylococcus aureus. As to conditions: stock solutions 20 μg/ml penicillin G, 20 μg/ml polymer, 40 μg/ml loaded polymer; 37° C., OD600 every 2 hours. The procedure: Broth dilution method was used to characterize the inhibition of penicillin G/polymer complex against CA-MRSA cells. Penicillin G, cationic cobaltocenium polymer or penicillin G/polymer complex was dissolved in water. Concentrations of the above solutions were at 20 μg/ml for penicillin G, 20 μg/ml for cationic polymer and 40 μg/ml penicillin G loaded polymer (20 μg/ml penicillin G and 20 μg/ml polymer). Solutions without polymers were prepared as the control samples. CA-MRSA cells were grown in tryptic soy broth (TSB) medium at 37° C. overnight. All bacteria were grown to an optical density of 1 (OD600=1). Then, the cells were diluted with TSB to give a bacterial assay stock with OD600=0.04. CA-MRSA cells ([…]) were added to each well in a 96 well assay plate.

For the compound `CC1(C)S[C@@H]2[C@H](NC(=O)Cc3ccccc3)C(=O)N2[C@H]1C(=O)O` [penicillin G, benzyl penicillin], the “inhibition of CA-MRSA growth (OD600)” value is reported as “some inhibition”.
